Measurements published in patent EP4603105A1, “PHARMACEUTICAL COMPOSITION CONTAINING CYCLIC COMPOUND HAVING SELECTIVE KRAS INHIBITORY EFFECT AGAINST HRAS AND NRAS” (CHUGAI SEIYAKU KABUSHIKI KAISHA, priority 2022, dated 2024).
Where a SMILES comes first, the peptide text is derived from it. Bridges are numbered along the chain shown (N, C = ends). [ ]: non-standard residue; d: D form. The star is where a group is joined. hPhe(3-Cl-4-CF3) = N[C@@H](CCc1ccc(C(F)(F)F)c(Cl)c1)C(=O)O; NPrPhe(4-CF3) = CCCN[C@@H](Cc1ccc(C(F)(F)F)cc1)C(=O)O; NMeGly(cPent) = CN[C@H](C(=O)O)C1CCCC1; Pro(4,4-F2) = O=C(O)[C@@H]1CC(F)(F)CN1; Hyp = O=C(O)[C@@H]1C[C@@H](O)CN1; NMeD = CN[C@@H](CC(=O)O)C(=O)O; NMeL = CN[C@@H](CC(C)C)C(=O)O; Morpholide = C1CN(*)CCO1; NMeA = CN[C@@H](C)C(=O)O; Ac5c = NC1(C(=O)O)CCCC1; Aze = O=C(O)[C@@H]1CCN1; Ac4c = NC1(C(=O)O)CCC1; Sar = CNCC(=O)O

Legend:
[1] = molecular target: GDP-bound NRAS wild-type protein (Homo sapiens, UniProt P01111); test: Binding to NRAS by surface plasmon resonance (SPR), KD and KD ratio to KRAS
Outline: (§1)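 Compound binding is evaluated by SPR single-cycle kinetics, with concentrations added intermittently from low to high for 75 s each. Target surfaces carry GDP-loaded biotinylated Avi-RAS at about 100–300 RU, regenerated after each cycle; temperature 30°C. A 1:1 binding model gives KD.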

HRAS wild-type protein = HRAS wild-type protein (Homo sapiens, UniProt P01112); test: Binding to HRAS by surface plasmon resonance (SPR), KD and KD ratio to KRAS
Outline: as §1

[2] = tested on: human lung cancer strain NCI-H441; format: cell-based
Outline: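 Proliferation was scored by […] measured after the reagent was added to cultures kept at 37°C in 5% carbon dioxide.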

[3] = ratio of KD value for GDP-bound NRAS wild-type protein to KD value for KRAS (SPR)
[4] = ratio of KD value for HRAS wild-type protein to KD value for KRAS (SPR)
[5] = ratio of KD for GDP-bound NRAS wild-type protein to KD for KRAS
[6] = ratio of KD for HRAS wild-type protein to KD for KRAS
[7] = ratio of the KD value with respect to GDP-bound NRAS wild-type protein to the KD value with respect to KRAS
[8] = ratio of the KD value with respect to HRAS wild-type protein to the KD value with respect to KRAS

HRAS wild-type protein, sequence (P01112 whole entry): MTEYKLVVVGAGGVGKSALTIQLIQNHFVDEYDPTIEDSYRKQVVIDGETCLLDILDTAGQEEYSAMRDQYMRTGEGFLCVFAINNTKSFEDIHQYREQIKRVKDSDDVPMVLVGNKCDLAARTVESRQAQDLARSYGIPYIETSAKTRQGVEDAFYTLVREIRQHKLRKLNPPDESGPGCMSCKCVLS
GDP-bound NRAS wild-type protein, sequence (P01111 whole entry): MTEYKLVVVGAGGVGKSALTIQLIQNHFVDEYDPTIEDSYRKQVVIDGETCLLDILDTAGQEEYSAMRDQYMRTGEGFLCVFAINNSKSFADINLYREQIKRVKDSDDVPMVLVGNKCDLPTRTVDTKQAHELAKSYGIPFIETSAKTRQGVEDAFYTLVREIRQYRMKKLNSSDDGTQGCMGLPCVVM

Row | SMILES | IC50 [2] | NRAS /KRAS [1, 3] | HRAS /KRAS (HRAS wild-type protein; [4]) | NRAS /KRAS [1, 5] | HRAS /KRAS (HRAS wild-type protein; [6]) | NRAS /KRAS [1, 7] | HRAS /KRAS (HRAS wild-type protein; [8])
1 | CC[C@H](C)[C@@H]1NC(=O)[C@H](CC(C)C)N(C)C(=O)C[C@@H](C(=O)N(C)C)N(C)C(=O)[C@H](C2CCCC2)N(C)C(=O)C2(CCC2)NC(=O)[C@@H]2C[C@@H](C)CN2C(=O)[C@H](CCc2ccc(C(F)(F)F)c(OC)c2)NC(=O)CN(C)C(=O)[C@H](Cc2ccc(C)cc2)N2CC/C=C\C[C@@H](C2=O)N(C)C(=O)CN(C)C1=O [PP1867] | 47.8 nM | A (a compound having 10 or more and less than 20 is denoted as A) | B (a compound having 3 or more and less than 10 is denoted as B) | – | – | – | –
2 | CCO[C@@H]1C[C@H]2C(=O)NC3(CCC3)C(=O)N(C)[C@@H](C3CCCC3)C(=O)N(C)[C@H](C(=O)N(C)C)CC(=O)N(C)[C@@H](CC)C(=O)N[C@@H]([C@@H](C)CC)C(=O)N(C)CC(=O)N(C)[C@H]3C/C=C\CCN(C3=O)[C@@H](Cc3ccc(C(F)(F)F)cc3)C(=O)N(C)CC(=O)N[C@@H](CCc3cc(F)c(C(F)(F)F)c(F)c3)C(=O)N2C1 [PP0824] | 23.6 nM | – | – | A (a compound having 10 or more and less than 20 is denoted as A) | A (a compound having 10 or more and less than 20 is denoted as A) | – | –
3 | CCCC[C@H]1C(=O)N[C@@H]([C@@H](C)CC)C(=O)N(C)CC(=O)N(C)[C@H]2C/C=C\CCN(C2=O)[C@@H](Cc2ccc(C)cc2)C(=O)N(C)CC(=O)N[C@@H](CCc2cc(F)c(C(F)(F)F)c(F)c2)C(=O)N2C[C@H](OCC)C[C@H]2C(=O)NC2(CCC2)C(=O)N(C)[C@@H](C2CCCC2)C(=O)N(C)[C@H](C(=O)N(C)CC)CC(=O)N1C [PP2796] | 9.6 nM | – | – | A (a compound having 10 or more and less than 20 is denoted as A) | A (a compound having 10 or more and less than 20 is denoted as A) | – | –
4 | CCO[C@@H]1C[C@H]2C(=O)NC3(CC(C)(C)C3)C(=O)N(C)[C@@H](C3CCCC3)C(=O)N(C)[C@H](C(C)C)CC(=O)N(C)[C@@H](CC)C(=O)N[C@@H]([C@@H](C)CC)C(=O)N(C)CC(=O)N(C)[C@H]3C/C=C\CCN(C3=O)[C@@H](CC3CCCCC3)C(=O)N(C)CC(=O)N[C@@H](CCc3cc(F)c(C(F)(F)F)c(F)c3)C(=O)N2C1 [PP1603] | 132 nM | B (a compound having 3 or more and less than 10 is denoted as B) | B (a compound having 3 or more and less than 10 is denoted as B) | – | – | – | –
5 | CCO[C@@H]1C[C@H]2C(=O)NC3(CCC3)C(=O)N(C)[C@@H](C3CCCC3)C(=O)N(C)[C@H](C(=O)N(C)C)CC(=O)N(C)[C@@H](CC)C(=O)N[C@@H]([C@@H](C)CC)C(=O)N(C)CC(=O)N(C)[C@H]3CCCCCN(C3=O)[C@@H](Cc3ccc(F)cc3C)C(=O)N(C)CC(=O)N[C@@H](CCc3cc(F)c(C(F)(F)F)c(F)c3)C(=O)N2C1 [PP0911] | 10.2 nM | – | – | B (a compound having 3 or more and less than 10 is denoted as B) | B (a compound having 3 or more and less than 10 is denoted as B) | – | –
6 | CCC[C@H]1C(=O)N[C@@H]([C@@H](C)CC)C(=O)N(C)CC(=O)N(C)[C@H]2C/C=C\CCN(C2=O)[C@@H](Cc2ccc(C(F)(F)F)cc2)C(=O)N(C)CC(=O)N[C@@H](CCc2ccc(C(F)(F)F)c(OC)c2)C(=O)N2C[C@H](OCC)C[C@H]2C(=O)NC2(CC(C)(C)C2)C(=O)N(C)[C@@H](CC2CC2)C(=O)N(C)[C@H](C(=O)N(C)C)CC(=O)N1C [PP2809] | 76.6 nM | – | – | A (a compound having 10 or more and less than 20 is denoted as A) | A (a compound having 10 or more and less than 20 is denoted as A) | – | –
7 | CCO[C@@H]1C[C@H]2C(=O)NC3(CCC3)C(=O)N(C)[C@@H]([C@@H](C)CC)C(=O)N(C)[C@H](C(=O)N(C)C)CC(=O)N(C)[C@@H](CC)C(=O)N[C@@H]([C@@H](C)CC)C(=O)N(C)CC(=O)N(C)[C@H]3C/C=C\CCN(C3=O)[C@@H](Cc3ccc(C(F)(F)F)cc3)C(=O)N(C)CC(=O)N[C@@H](CCc3cc(F)c(C(F)(F)F)c(F)c3)C(=O)N2C1 [PP1087] | 40.4 nM | – | – | A (a compound having 10 or more and less than 20 is denoted as A) | A (a compound having 10 or more and less than 20 is denoted as A) | – | –
8 | CCCN1C(=O)CN(C)C(=O)[C@@H]2CCN2C(=O)[C@H]([C@@H](C)CC)NC(=O)[C@H](CC(C)C)N(C)C(=O)C[C@@H](C(=O)N2CCOCC2)N(C)C(=O)[C@H](C2CCCC2)N(C)C(=O)C2(CCCC2)NC(=O)[C@@H]2CC(F)(F)CN2C(=O)[C@H](CCc2ccc(C(F)(F)F)c(Cl)c2)NC(=O)CN(C)C(=O)[C@@H]1Cc1ccc(C(F)(F)F)cc1 [PP0403] ([NMeL]I[Aze][Sar][NPrPhe(4-CF3)][Sar][hPhe(3-Cl-4-CF3)][Pro(4,4-F2)][Ac5c][NMeGly(cPent)][NMeD]-Morpholide; lactam N-11) | 19.4 nM | – | – | – | – | B (a compound having 3 or more and less than 10 is denoted as B) | B (a compound having 3 or more and less than 10 is denoted as B)
9 | CCCN1C(=O)[C@@H]2CCN2C(=O)[C@H](C)N(C)C(=O)[C@H]([C@@H](C)CC)NC(=O)[C@H](CC(C)C)N(C)C(=O)C[C@@H](C(=O)N2CCOCC2)NC(=O)[C@H](C2CCCC2)N(C)C(=O)C2(CCC2)NC(=O)[C@@H]2C[C@@H](OCC)CN2C(=O)[C@H](CCc2ccc(C(F)(F)F)c(Cl)c2)NC(=O)CN(C)C(=O)[C@@H]1Cc1ccc(C(F)(F)F)cc1 [PP0348] ([NMeL]I[NMeA][Aze][NPrPhe(4-CF3)][Sar][hPhe(3-Cl-4-CF3)][Hyp](Et)[Ac4c][NMeGly(cPent)]D-Morpholide; lactam N-11) | 15.1 nM | – | – | C (A compound having a KD ratio of 0.1 or more and less than 3 is denoted as C) | B (a compound having 3 or more and less than 10 is denoted as B) | – | –
10 | CCCN1C(=O)CN(C)C(=O)CNC(=O)[C@H]([C@@H](C)CC)NC(=O)[C@H](CC(C)C)N(C)C(=O)C[C@@H](C(=O)N(C)C)NC(=O)[C@H](C2CCCC2)N(C)C(=O)C2(CCC2)NC(=O)[C@@H]2CC(F)(F)CN2C(=O)[C@H](CCc2ccc(C(F)(F)F)c(Cl)c2)NC(=O)CN(C)C(=O)[C@@H]1Cc1ccc(C(F)(F)F)cc1 [PP0364] ([NMeL]IG[Sar][NPrPhe(4-CF3)][Sar][hPhe(3-Cl-4-CF3)][Pro(4,4-F2)][Ac4c][NMeGly(cPent)]D-NMe2; lactam N-11) | 103 nM | – | – | B (a compound having 3 or more and less than 10 is denoted as B) | B (a compound having 3 or more and less than 10 is denoted as B) | – | –

The next molecules have a lower IC50 [2] than those just listed; values first:

Row | IC50 [2] | SMILES | NRAS /KRAS [1, 3] | HRAS /KRAS (HRAS wild-type protein; [4]) | NRAS /KRAS [1, 5] | HRAS /KRAS (HRAS wild-type protein; [6]) | NRAS /KRAS [1, 7] | HRAS /KRAS (HRAS wild-type protein; [8])
11 | 8.7 nM | C#CC[C@H]1C(=O)N[C@@H]([C@@H](C)CC)C(=O)N(C)CC(=O)N(C)[C@H]2C/C=C\CCN(C2=O)[C@@H](Cc2ccc(C(F)(F)F)cc2)C(=O)N(C)CC(=O)N[C@@H](CCc2cc(F)c(C(F)(F)F)c(F)c2)C(=O)N2CC3(CC3)C[C@H]2C(=O)NC2(CC(C)(C)C2)C(=O)N(C)[C@@H](C2CCCC2)C(=O)N(C)[C@H](C(=O)N(C)C)CC(=O)N1C [PP2976] | – | – | A (a compound having 10 or more and less than 20 is denoted as A) | B (a compound having 3 or more and less than 10 is denoted as B) | – | –
12 | 7.9 nM | CCO[C@@H]1C[C@H]2C(=O)NC3(CC(C)(C)C3)C(=O)N(C)[C@@H](C3CCCC3)C(=O)N(C)[C@H](C(=O)N(C)CC)CC(=O)N(C)[C@H]3CCCC/C=C/c4ccc(cc4)C[C@@H](C(=O)N(C)CC(=O)N[C@@H](CCc4ccc(Cl)c(Cl)c4)C(=O)N2C1)N1CC/C=C\C[C@@H](C1=O)N(C)C(=O)CN(C)C(=O)[C@H]([C@@H](C)CC)NC3=O [PP2592] | – | – | A (a compound having 10 or more and less than 20 is denoted as A) | A (a compound having 10 or more and less than 20 is denoted as A) | – | –
13 | 5.9 nM | CCO[C@@H]1C[C@H]2C(=O)NC3(CC(C)(C)C3)C(=O)N(C)[C@@H](C(CC)CC)C(=O)N(C)[C@H](C(=O)N(C)C)CC(=O)N(C)[C@@H](COC)C(=O)N[C@@H]([C@@H](C)CC)C(=O)N(C)CC(=O)N(C)[C@H]3C/C=C\CCN(C3=O)[C@@H](Cc3ccc(C(F)(F)F)cc3)C(=O)N(C)CC(=O)N[C@@H](CCc3ccc(C(F)(F)F)c(OC)c3)C(=O)N2C1 [PP2157] | – | – | – | – | A (a compound having 10 or more and less than 20 is denoted as A) | A (a compound having 10 or more and less than 20 is denoted as A)
14 | 5.1 nM | CCO[C@@H]1C[C@H]2C(=O)NC3(CCC3)C(=O)N(C)[C@@H](C3CCCC3)C(=O)N(C)[C@H](C(=O)N(C)CC)CC(=O)N(C)[C@@H](CC(C)C)C(=O)N[C@@H]([C@@H](C)CC)C(=O)N(C)CC(=O)N(C)[C@H]3C/C=C\CCN(C3=O)[C@@H](Cc3ccc(C(F)(F)F)cc3)C(=O)N(C)CC(=O)N[C@@H](CCc3ccc(C(F)(F)F)c(OC)c3)C(=O)N2C1 [PP2846] | – | – | AA (a compound having 20 or more is denoted as AA) | A (a compound having 10 or more and less than 20 is denoted as A) | – | –
15 | 2 nM | CCCN1C(=O)CN(C)C(=O)CN(C)C(=O)[C@H]([C@@H](C)CC)NC(=O)[C@H](CC(C)C)N(C)C(=O)C[C@@H](C(=O)N(C)C)N(C)C(=O)[C@H](C2CCCC2)N(C)C(=O)C2(CCCC2)NC(=O)[C@@H]2CC(F)(F)CN2C(=O)[C@H](CCc2ccc(C(F)(F)F)c(Cl)c2)NC(=O)CN(C)C(=O)[C@@H]1Cc1ccc(C(F)(F)F)cc1 [PP0413] ([NMeL]I[Sar][Sar][NPrPhe(4-CF3)][Sar][hPhe(3-Cl-4-CF3)][Pro(4,4-F2)][Ac5c][NMeGly(cPent)][NMeD]-NMe2; lactam N-11) | – | – | – | – | C (A compound having a KD ratio of 0.1 or more and less than 3 is denoted as C) | C (A compound having a KD ratio of 0.1 or more and less than 3 is denoted as C)
